From the CheMixHub drug solubility set

Test: xn = mol fraction of the nth substance listed, in the solute-free solvent

CCCCOc1ccc(C(=O)CCN2CCCCC2)cc1.Cl + CO + C1CCOC1
solubility (g/100 g solution)
Conditions | 278.15 K | 283.15 K | 288.15 K | 293.15 K | 298.15 K | 303.15 K | 308.15 K | 313.15 K | 318.15 K | 323.15 K
x2 = 0.1 | 3.9 | 4.4 | 4.97 | 5.64 | 6.4 | 7.23 | 8.14 | 9.22 | 10.4 | 11.6
x2 = 0.2 | 7.86 | 8.84 | 9.92 | 11.2 | 12.4 | 13.9 | 15.5 | 17.2 | 19.1 | 21.1
x2 = 0.3 | 12 | 13.4 | 14.9 | 16.6 | 18.4 | 20.5 | 22.6 | 24.9 | 27.4 | 30
x2 = 0.4 | 16.3 | 18.1 | 20.1 | 22.3 | 24.6 | 27 | 29.6 | 32.5 | 35.4 | 38.5
x2 = 0.5 | 20.8 | 23.1 | 25.4 | 28 | 30.6 | 33.5 | 36.5 | 39.6 | 42.8 | 46.2
x2 = 0.6 | 25.5 | 28.2 | 30.8 | 33.7 | 36.7 | 39.8 | 43 | 46.4 | 49.9 | 53.3
x2 = 0.7 | 30.6 | 33.5 | 36.5 | 39.6 | 42.9 | 46.2 | 49.6 | 53 | 56.5 | 59.9
x2 = 0.8 | 35.7 | 38.9 | 42 | 45.4 | 48.7 | 52.1 | 55.5 | 59 | 62.5 | 65.8
x2 = 0.9 | 41.3 | 44.6 | 48 | 51.3 | 54.7 | 58.1 | 61.5 | 64.9 | 68 | 71.3

O=C(O)c1cc([N+](=O)[O-])ccc1O + CO + O
solubility (g/100 g solution)
Conditions | 278.15 K | 283.15 K | 288.15 K | 293.15 K | 298.15 K | 303.15 K | 308.15 K | 313.15 K | 318.15 K | 323.15 K
x2 = 0.05881 | 0.117 | 0.173 | 0.235 | 0.287 | 0.359 | 0.429 | 0.505 | 0.603 | 0.726 | 0.877
x2 = 0.1233 | 0.41 | 0.537 | 0.709 | 0.886 | 1.08 | 1.29 | 1.53 | 1.79 | 2.1 | 2.45
x2 = 0.1942 | 1.03 | 1.3 | 1.61 | 2 | 2.42 | 2.83 | 3.35 | 3.9 | 4.5 | 5.22
x2 = 0.2727 | 2.03 | 2.54 | 3.13 | 3.79 | 4.57 | 5.28 | 6.22 | 7.27 | 8.39 | 9.67
x2 = 0.3599 | 4.15 | 4.74 | 5.63 | 6.73 | 7.94 | 9.14 | 10.4 | 11.7 | 13.1 | 14.6
x2 = 0.4576 | 7.29 | 8.14 | 9.16 | 10.4 | 11.9 | 13.4 | 15.2 | 17.1 | 19.2 | 21.5
x2 = 0.5675 | 9.53 | 10.8 | 12.5 | 14.2 | 15.9 | 17.6 | 19.5 | 21.5 | 23.6 | 25.8
x2 = 0.6923 | 11.6 | 12.9 | 14.7 | 17 | 19.2 | 21.1 | 23.1 | 25.2 | 27.2 | 29.4
x2 = 0.835 | 13.8 | 15.1 | 16.8 | 18.7 | 21.1 | 23.3 | 25.3 | 27.6 | 29.8 | 32.4
